Source: ChEMBL document CHEMBL5244258, “PROTACs: New method to degrade transcription regulating proteins” (Eur J Med Chem, 2020)
Values belong to the molecule of their own block, whether it stands above or below them.

Key:
Androgen receptor = biological target: T1, Androgen receptor (Homo sapiens, UniProt P10275); assay: Induction of AR degradation in human HeLa cells; type: cell-based
T1 sequence (P10275 whole entry): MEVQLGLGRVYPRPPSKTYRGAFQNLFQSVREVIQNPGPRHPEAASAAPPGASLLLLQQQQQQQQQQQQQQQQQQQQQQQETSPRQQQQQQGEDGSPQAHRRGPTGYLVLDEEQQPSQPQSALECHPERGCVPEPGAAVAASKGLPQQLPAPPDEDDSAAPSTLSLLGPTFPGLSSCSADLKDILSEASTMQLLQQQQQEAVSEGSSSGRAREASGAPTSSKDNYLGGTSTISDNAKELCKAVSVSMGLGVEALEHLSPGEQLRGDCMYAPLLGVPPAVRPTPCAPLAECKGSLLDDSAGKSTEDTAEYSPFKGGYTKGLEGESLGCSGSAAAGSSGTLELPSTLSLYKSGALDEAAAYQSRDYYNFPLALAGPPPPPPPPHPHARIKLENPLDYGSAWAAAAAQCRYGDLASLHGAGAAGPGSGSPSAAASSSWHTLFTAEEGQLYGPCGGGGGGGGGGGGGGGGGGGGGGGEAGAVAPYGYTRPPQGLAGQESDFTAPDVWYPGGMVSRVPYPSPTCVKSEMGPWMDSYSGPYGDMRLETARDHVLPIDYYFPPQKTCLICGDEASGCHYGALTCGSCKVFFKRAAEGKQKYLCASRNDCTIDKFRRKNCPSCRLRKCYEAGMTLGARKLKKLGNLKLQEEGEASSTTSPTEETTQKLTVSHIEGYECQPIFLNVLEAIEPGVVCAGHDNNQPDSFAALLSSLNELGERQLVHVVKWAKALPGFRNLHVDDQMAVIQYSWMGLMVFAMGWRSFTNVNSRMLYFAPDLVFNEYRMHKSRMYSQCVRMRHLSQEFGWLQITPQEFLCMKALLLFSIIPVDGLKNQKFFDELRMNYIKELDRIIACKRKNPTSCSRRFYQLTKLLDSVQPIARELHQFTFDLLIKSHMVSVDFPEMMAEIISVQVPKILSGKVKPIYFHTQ

[1] = biological target: von Hippel-Lindau disease tumor suppressor/Steroid hormone receptor ERR1 (Homo sapiens) (UniProt P11474+P40337); assay: Protac activity at VHL/ERRalpha in human MCF7 cells assessed as maximum efficacy relative to control; type: cell-based
[2] = biological target: T2, von Hippel-Lindau disease tumor suppressor/Estrogen receptor (Homo sapiens, UniProt P03372+P40337); assay: Protac activity at ER/VHL (unknown origin) degradation in human MCF7 cells assessed as maximum efficacy by immunoblotting analysis relative to control; type: cell-based
Target sequence in this assay (P40337 whole entry, looked up, one chain of several): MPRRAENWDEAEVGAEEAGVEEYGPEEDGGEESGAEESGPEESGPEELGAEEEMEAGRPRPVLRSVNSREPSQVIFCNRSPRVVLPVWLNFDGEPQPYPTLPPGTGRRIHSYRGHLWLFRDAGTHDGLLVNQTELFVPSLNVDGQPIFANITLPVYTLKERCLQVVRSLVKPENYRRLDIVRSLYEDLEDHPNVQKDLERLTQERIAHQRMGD

[3] = biological target: T2, von Hippel-Lindau disease tumor suppressor/Estrogen receptor; assay: Protac activity at ER/VHL (unknown origin) degradation in human MCF7 cells by immunoblotting analysis; type: cell-based
Target sequence in this assay (P40337 whole entry, one chain of several): as the sequence (P40337 whole entry, looked up, one chain of several) above

HCT-116 = assay: Antiproliferative activity against human HCT-116 cells assessed as reduction in cell viability measured for 48 hrs by MTT assay; type: functional
[4] = biological target: Bromodomain-containing protein 4 (Homo sapiens) (UniProt O60885); assay: Induction of BRD4 degradation in human HeLa cells assessed as maximum efficacy at 1 uM relative to control; type: cell-based
[5] = biological target: T3, von Hippel-Lindau disease tumor suppressor/Bromodomain-containing protein 4 (Homo sapiens, UniProt O60885+P40337); assay: Protac activity at VHL/BRD4 in human HeLa cells assessed as BRD4 degradation at 1 uM by Western blot analysis relative to control; type: cell-based
[6] = biological target: T3, von Hippel-Lindau disease tumor suppressor/Bromodomain-containing protein 4; assay: Protac activity at VHL/BRD4 in human HeLa cells assessed as BRD4 degradation by Western blot analysis relative to control; type: cell-based
[7] = biological target: T3, von Hippel-Lindau disease tumor suppressor/Bromodomain-containing protein 4; assay: Protac activity at BRD4/VHL (unknown origin) assessed as maximum efficacy relative to control
[8] = biological target: T4, Androgen receptor (Homo sapiens) (UniProt P10275); assay: Induction of AR degradation in human HeLa cells assessed as maximum efficacy at 100 nM relative to control; type: cell-based
T4 sequence (whole entry): T1 sequence (P10275 whole entry)

[9] = biological target: T5, Estrogen receptor (Homo sapiens) (UniProt P03372); assay: Induction of estrogen receptor degradation in human MCF7 cells assessed as maximum efficacy relative to control; type: cell-based
T5 sequence (whole entry): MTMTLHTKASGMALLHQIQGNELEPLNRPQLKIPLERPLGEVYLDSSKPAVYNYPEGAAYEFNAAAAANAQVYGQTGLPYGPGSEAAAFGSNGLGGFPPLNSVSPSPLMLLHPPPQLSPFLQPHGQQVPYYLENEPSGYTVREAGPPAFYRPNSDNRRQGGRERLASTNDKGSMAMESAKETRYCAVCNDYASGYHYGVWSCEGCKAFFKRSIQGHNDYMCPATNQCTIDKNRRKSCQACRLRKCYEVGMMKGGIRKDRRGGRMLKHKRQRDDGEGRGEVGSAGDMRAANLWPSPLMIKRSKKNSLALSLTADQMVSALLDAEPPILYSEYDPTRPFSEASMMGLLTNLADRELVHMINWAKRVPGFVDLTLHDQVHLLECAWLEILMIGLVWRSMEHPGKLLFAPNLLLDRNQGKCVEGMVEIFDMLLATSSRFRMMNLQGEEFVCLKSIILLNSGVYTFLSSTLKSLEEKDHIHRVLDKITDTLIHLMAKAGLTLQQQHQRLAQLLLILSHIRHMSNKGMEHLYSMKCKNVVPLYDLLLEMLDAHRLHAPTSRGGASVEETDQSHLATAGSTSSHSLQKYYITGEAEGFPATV

Estrogen receptor = biological target: T6, Estrogen receptor (Homo sapiens, UniProt P03372); assay: Induction of estrogen receptor degradation in human MCF7; type: cell-based
T6 sequence (P03372 whole entry): T5 sequence (whole entry)

[10] = biological target: T3, von Hippel-Lindau disease tumor suppressor/Bromodomain-containing protein 4; assay: Protac activity at BRD4/VHL (unknown origin)
MV4-11 = assay: Antiproliferative activity against human MV4-11 cells assessed as growth inhibition; type: functional, cell-based
[11] = biological target: T7, von Hippel-Lindau disease tumor suppressor/SWI/SNF-related matrix-associated actin-dependent regulator of chromatin subfamily A member 2 (Homo sapiens, UniProt P51531+P40337); assay: PROTAC activity at SMARCA2/VHL in human MV4-11 cells assessed as degradation of SMARCA2 measured for 24 hrs by Western blot analysis; type: cell-based
Target sequence in this assay (P51531 whole entry): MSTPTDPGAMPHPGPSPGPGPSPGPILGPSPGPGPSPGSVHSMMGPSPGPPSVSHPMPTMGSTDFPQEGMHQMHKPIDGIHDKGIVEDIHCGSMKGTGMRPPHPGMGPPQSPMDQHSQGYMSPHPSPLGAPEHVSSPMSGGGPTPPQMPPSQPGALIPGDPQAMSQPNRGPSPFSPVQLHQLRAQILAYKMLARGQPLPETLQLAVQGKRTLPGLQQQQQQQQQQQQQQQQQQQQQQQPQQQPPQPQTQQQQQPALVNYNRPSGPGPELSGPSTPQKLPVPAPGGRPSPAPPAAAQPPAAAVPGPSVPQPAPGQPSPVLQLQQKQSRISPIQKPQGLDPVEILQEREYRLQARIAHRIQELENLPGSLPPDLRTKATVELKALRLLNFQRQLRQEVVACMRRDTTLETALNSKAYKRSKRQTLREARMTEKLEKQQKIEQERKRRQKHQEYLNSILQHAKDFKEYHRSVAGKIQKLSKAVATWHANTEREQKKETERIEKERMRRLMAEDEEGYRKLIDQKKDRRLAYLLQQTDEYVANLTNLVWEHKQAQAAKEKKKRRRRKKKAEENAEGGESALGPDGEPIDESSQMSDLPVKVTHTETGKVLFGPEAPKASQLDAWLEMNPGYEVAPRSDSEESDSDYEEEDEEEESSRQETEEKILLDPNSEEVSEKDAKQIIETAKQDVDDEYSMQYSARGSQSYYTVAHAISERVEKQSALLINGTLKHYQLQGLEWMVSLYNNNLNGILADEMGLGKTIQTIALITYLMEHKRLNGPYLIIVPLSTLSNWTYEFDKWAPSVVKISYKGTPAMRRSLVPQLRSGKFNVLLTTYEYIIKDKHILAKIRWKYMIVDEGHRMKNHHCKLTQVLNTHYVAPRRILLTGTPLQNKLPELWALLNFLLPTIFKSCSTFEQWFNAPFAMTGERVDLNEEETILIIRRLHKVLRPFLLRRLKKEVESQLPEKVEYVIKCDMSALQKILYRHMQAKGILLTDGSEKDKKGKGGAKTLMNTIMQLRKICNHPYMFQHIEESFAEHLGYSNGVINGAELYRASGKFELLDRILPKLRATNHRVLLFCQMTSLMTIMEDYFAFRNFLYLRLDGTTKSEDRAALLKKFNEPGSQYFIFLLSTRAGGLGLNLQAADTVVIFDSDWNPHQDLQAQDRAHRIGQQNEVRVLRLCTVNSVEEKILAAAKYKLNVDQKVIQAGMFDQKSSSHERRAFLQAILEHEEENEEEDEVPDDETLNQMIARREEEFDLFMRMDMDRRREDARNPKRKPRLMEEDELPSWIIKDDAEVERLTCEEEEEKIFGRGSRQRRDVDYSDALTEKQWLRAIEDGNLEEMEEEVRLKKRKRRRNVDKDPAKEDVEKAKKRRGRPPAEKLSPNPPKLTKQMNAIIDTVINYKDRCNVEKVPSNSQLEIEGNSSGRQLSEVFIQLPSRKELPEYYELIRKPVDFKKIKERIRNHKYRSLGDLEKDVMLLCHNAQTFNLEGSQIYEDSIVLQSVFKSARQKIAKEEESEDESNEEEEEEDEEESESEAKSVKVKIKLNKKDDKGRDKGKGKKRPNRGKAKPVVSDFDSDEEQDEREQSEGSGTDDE
Target sequence in this assay (P40337 whole entry): as the sequence (P40337 whole entry, looked up, one chain of several) above

[12] = biological target: von Hippel-Lindau disease tumor suppressor/SWI/SNF-related matrix-associated actin-dependent regulator of chromatin subfamily A member 4 (Homo sapiens, UniProt P51532+P40337); assay: PROTAC activity at SMARCA4/VHL in human MV4-11 cells assessed as degradation of SMARCA4 measured for 24 hrs by Western blot analysis; type: cell-based
[13] = biological target: T7, von Hippel-Lindau disease tumor suppressor/SWI/SNF-related matrix-associated actin-dependent regulator of chromatin subfamily A member 2; assay: PROTAC activity at SMARCA2/VHL in human MV4-11 cells assessed as degradation of SMARCA2 by Western blot analysis; type: cell-based
Target sequence in this assay (P51531 whole entry): as the sequence (P51531 whole entry) above
Target sequence in this assay (P40337 whole entry): as the sequence (P40337 whole entry, looked up, one chain of several) above

[14] = biological target: T7, von Hippel-Lindau disease tumor suppressor/SWI/SNF-related matrix-associated actin-dependent regulator of chromatin subfamily A member 2; assay: PROTAC activity at SMARCA2/VHL in human MV4-11 cells assessed as degradation of SMARCA2 measured for 24 hrs by Western blot analysis relative to control; type: cell-based
Target sequence in this assay (P40337 whole entry, looked up): as the sequence (P40337 whole entry, looked up, one chain of several) above
Target sequence in this assay (P51531 whole entry, looked up): as the sequence (P51531 whole entry) above

[15] = biological target: T4, Androgen receptor (Homo sapiens); assay: Induction of AR degradation in human HeLa cells assessed as maximum efficacy at 3 nM relative to control; type: cell-based
[16] = biological target: T8, Bromodomain-containing protein 2 (Homo sapiens, UniProt P25440); assay: Induction of BRD2 degradation (unknown origin) relative to control
Target sequence in this assay (P25440 whole entry, looked up): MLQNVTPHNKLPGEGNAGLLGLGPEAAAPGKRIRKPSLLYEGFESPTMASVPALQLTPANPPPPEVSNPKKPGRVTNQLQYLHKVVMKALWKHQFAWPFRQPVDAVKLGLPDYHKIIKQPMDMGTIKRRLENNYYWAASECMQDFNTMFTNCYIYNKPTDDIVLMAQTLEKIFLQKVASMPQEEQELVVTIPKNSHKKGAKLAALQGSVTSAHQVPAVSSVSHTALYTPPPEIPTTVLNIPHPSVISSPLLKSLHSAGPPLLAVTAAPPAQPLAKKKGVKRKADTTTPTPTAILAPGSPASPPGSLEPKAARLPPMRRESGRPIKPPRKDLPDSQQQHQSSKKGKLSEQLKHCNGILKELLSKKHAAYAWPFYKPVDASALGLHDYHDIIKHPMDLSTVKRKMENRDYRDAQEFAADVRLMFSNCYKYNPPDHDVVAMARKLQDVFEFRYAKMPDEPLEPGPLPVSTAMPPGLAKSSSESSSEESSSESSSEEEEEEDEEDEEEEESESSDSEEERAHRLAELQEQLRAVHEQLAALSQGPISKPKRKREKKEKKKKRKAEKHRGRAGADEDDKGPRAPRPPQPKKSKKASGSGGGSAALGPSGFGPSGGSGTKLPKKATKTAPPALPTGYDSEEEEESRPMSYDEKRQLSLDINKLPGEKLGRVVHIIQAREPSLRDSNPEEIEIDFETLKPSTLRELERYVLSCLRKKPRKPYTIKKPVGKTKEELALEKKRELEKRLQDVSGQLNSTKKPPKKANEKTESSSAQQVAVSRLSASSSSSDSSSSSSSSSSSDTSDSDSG

[17] = biological target: T8, Bromodomain-containing protein 2; assay: Induction of BRD2 degradation (unknown origin)
Target sequence in this assay (P25440 whole entry): as the sequence (P25440 whole entry, looked up) above

T3 sequence (P40337 whole entry, looked up, other chains not shown): as the sequence (P40337 whole entry, looked up, one chain of several) above
Sequence of von Hippel-Lindau disease tumor suppressor/Steroid hormone receptor ERR1 (Homo sapiens) (P11474 whole entry, looked up): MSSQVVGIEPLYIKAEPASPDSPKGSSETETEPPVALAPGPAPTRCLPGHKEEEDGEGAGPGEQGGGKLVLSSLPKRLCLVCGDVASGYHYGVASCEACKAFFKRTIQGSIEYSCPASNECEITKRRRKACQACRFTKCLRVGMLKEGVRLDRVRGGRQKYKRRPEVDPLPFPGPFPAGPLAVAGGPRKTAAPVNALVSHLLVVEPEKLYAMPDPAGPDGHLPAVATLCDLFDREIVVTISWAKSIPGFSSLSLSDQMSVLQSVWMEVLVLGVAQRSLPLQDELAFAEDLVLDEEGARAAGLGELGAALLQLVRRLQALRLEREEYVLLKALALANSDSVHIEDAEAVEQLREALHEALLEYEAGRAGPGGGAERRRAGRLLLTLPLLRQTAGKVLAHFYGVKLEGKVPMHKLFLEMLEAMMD
Sequence of von Hippel-Lindau disease tumor suppressor/Steroid hormone receptor ERR1 (Homo sapiens) (P40337 whole entry, looked up): as the sequence (P40337 whole entry, looked up, one chain of several) above

SMILES: COc1ccc(C2=N[C@H](c3ccc(Cl)cc3)[C@H](c3ccc(Cl)cc3)N2C(=O)N2CCN(CC(=O)NCCOCCOCCOCC(=O)Nc3ccc(OC[C@](C)(O)C(=O)Nc4ccc([N+](=O)[O-])c(C(F)(F)F)c4)cc3)C(=O)C2)c(OC(C)C)c1
- DC50 (Androgen receptor): 10000 nM

SMILES: COc1cc(/C=C2\SC(=O)N(CCOCCC(=O)N[C@H](C(=O)N3C[C@H](O)C[C@H]3C(=O)NCc3ccc(-c4scnc4C)cc3)C(C)(C)C)C2=O)ccc1Oc1ccc(C#N)cc1C(F)(F)F
- Emax [1]: > 86%
- Emax [2]: 86%
- DC50 [3]: 100 nM

SMILES: COc1cc(C(=O)O)ccc1NC(=O)[C@@H]1N[C@@H](CC(C)(C)C)[C@](C#N)(c2ccc(Cl)cc2F)[C@H]1c1cccc(Cl)c1F [IDASANUTLIN]
- Activity (HCT-116): 64%

SMILES: CC/C(=C(\c1ccc(O)cc1)c1ccc(OCCN(C)C(=O)COCCOCCOCCOc2ccc(O[C@H]3C[C@@H](C(=O)N[C@@H]4CCCc5ccccc54)N(C(=O)[C@@H](NC(=O)[C@H](C)NC)C4CCCCC4)C3)cc2)cc1)c1ccccc1
- Emax [8]: > 70%
- Emax [9]: > 80%
- DC50 (Estrogen receptor): 1000 nM

SMILES: Cc1ncsc1-c1ccc(CNC(=O)[C@@H]2C[C@@H](O)CN2C(=O)[C@@H](NC(=O)C2(F)CC2)C(C)(C)C)c(OCCOc2ccc(CN3CCN(c4cc(-c5ccccc5O)nnc4N)CC3)cc2)c1
- IC50 (MV4-11): 28 nM
- DC50 [11]: 6 nM
- DC50 [12]: 11 nM
- DC50 [13]: 6 nM
- Emax [14]: 100%

SMILES: CC/C(=C(\c1ccc(O)cc1)c1ccc(OCCN(C)C(=O)COCCOCCOCCOc2cccc(C(=O)c3csc([C@@H]4CCCN4C(=O)[C@@H](NC(=O)[C@H](C)NC)C4CCCCC4)n3)c2)cc1)c1ccccc1
- Emax [8]: > 70%
- Emax [9]: > 70%
- DC50 (Estrogen receptor): 1000 nM
- Emax [15]: 50%

Now from value to molecule:

- Emax [4]: > 90%
- Activity [5]: 90%
- Emax [6]: > 90%
- Emax [7]: > 90%
SMILES: Cc1ncsc1-c1ccc(CNC(=O)[C@@H]2C[C@@H](O)CN2C(=O)[C@@H](NC(=O)COCCOCCOCCNC(=O)C[C@@H]2N=C(c3ccc(Cl)cc3)c3c(sc(C)c3C)-n3c(C)nnc32)C(C)(C)C)cc1

- DC50 [10]: 10 nM
- Emax [7]: > 90%
SMILES: CC(=O)N[C@H](C(=O)N1C[C@@H](O)C[C@H]1C(=O)NCc1ccc(-c2scnc2C)cc1)C(C)(C)SCCCCCNC(=O)C[C@@H]1N=C(c2ccc(Cl)cc2)c2c(sc(C)c2C)-n2c(C)nnc21

- Emax [16]: > 90%
- DC50 [17]: < 1 nM
- Emax [7]: > 50%
SMILES: Cc1ncsc1-c1ccc([C@H](C)NC(=O)[C@@H]2C[C@@H](O)CN2C(=O)[C@@H](NC(=O)COCCCOCCNC(=O)C[C@@H]2N=C(c3ccc(Cl)cc3)c3c(sc(C)c3C)-n3c(C)nnc32)C(C)(C)C)cc1
